The record followed here is patent US20180230127A1 (PFIZER INC., priority 2015, published 2018).

Structures are written as SMILES. pIC50: −log10 of the molar value. Structures can show the parent of a compound that is named as a salt.

For this experiment, the target named is T1, human IRAK4 kinase domain (aa 154-460) (Homo sapiens, UniProt Q9NWZ3).
T1 construct: human IRAK4 kinase domain (aa 154-460; GenBank ID AF445802)
T1 sequence (Q9NWZ3 154-460): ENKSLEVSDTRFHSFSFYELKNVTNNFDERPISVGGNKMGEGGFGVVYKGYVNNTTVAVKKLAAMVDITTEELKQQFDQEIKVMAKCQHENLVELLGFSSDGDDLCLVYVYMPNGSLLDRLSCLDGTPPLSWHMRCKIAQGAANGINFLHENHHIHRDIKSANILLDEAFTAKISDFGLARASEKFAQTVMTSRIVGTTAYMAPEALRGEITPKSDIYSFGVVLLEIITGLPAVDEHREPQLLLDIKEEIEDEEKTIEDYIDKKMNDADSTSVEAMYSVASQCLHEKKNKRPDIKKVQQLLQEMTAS
Briefly: IRAK4 Enzymatic DELFIA Assay. The following applies: 0.6 mM ATP (KM); 114 pM IRAK4 kinase domain; 200 nM substrate; 5% DMSO. In kind it is biochemical. The method, then:
IRAK4 Enzymatic DELFIA Assay.
This is an in vitro assay to measure IRAK4 enzymatic activity utilizing the DELFIA (Dissociation-Enhanced Lanthanide Fluorescent Immunoassay, Perkin-Elmer) platform, with the human IRAK4 kinase domain (aa 154-460) construct to characterize IRAK4 inhibitor and control compounds at 0.6 mM ATP (KM). The final amount of enzyme in the assay is 114 pM IRAK4 kinase domain, final concentration of substrate is 200 nM, and final concentration of DMSO is 5%.
The test compound was solubilized in DMSO to a stock concentration of 30 mM. The dose response plates were prepared with a 2 mM primary compound concentration, and then diluted in DMSO in a four-fold series for a total of 10 data points. Compounds were prepared as a 20-fold multiple of the final in-assay concentration
To begin the assay, 45 μL of reaction mixture containing 20 mM HEPES pH=7.5, 5 mM MgCl2, 0.0025% Brij-35, […], 228 pM phosphorylated recombinant human IRAK4 kinase domain (aa 154-460; GenBank ID AF445802) were aliquoted into Ultra-Clear Polypropylene, 96-well, U-Bottom Plates (Corning Life Sciences). 5 μL of test compound from the dose-response plate was added to the reaction mixture and incubated for 15 minutes at room temperature. Then 50 μL of 20 mM HEPES pH=7.5, 5 mM MgCl2, 0.0025% Brij-35, 600 μM ATP, and 400 nM ERM-biotinylated peptide (AGAGRDKYKTLRQIR) were added to start the reaction. The reaction was incubated for 90 minutes at room temperature and stopped by the addition of 25 μL 0.5M EDTA.
100 μL of the reaction mixture was transferred to a streptavidin coated detection plate (EvenCoat Streptavidin Coated Plates, 96-Well, R&D Systems) and incubated for 30 minutes at room temperature. The plates were washed 4 times with 100 μL per well of PBS containing 0.05% Tween-20. Plates were then incubated with 50 μL per well of antibody cocktail of Anti-pERM antibody (Cell Signaling Technology) diluted 1:5000, plus Anti-Rabbit IgG EuN1 at 0.242 μg/ml (Perkin-Elmer Life Sciences) in a solution of 10 mM MOPS pH=7.5, 150 mM NaCl, 0.05% Tween-20, 0.02% NaN3, 1% BSA, 0.1% Gelatin for 45 minutes. The plates were washed 4× with 100 μL per well of PBS containing 0.05% Tween-20. Then 100 μL per well of DELFIA Enhancement Solution were added to the plate and then read on an EnVision Model 2103 using a 340 nm excitation wavelength and a 665 nm emission detection.
As a reminder, the pIC50 is the IC50 on a negative log10 scale, so that one unit is a factor of ten. In the case of `CC(C)Oc1cc2c(O[C@@H]3CCCN(C(=O)C(C)C#N)C3)ccnc2cc1C(N)=O` (mixture of isomers) [Example 34, 4-{[(3R)-1-(2-cyanopropanoyl)piperidin-3-yl]oxy}-6-(propan-2-yloxy)quinoline-7-carboxamide], the pIC50 is 6.03.
`CC(C)Oc1cc2c(OC3CCNC3)ccnc2cc1C(N)=O` (stereo not shown) [Example 24, 6-(propan-2-yloxy)-4-(pyrrolidin-3-yloxy)quinoline-7-carboxamide]: the pIC50 was 6.21.
The figure for `CC(C)Oc1cc2c(O[C@H]3CCN(C(=O)CC#N)C[C@H]3F)nccc2cc1C(N)=O` [Example 3, 1-{[(3R,4S)-1-(cyanoacetyl)-3-fluoropiperidin-4-yl]oxy}-7-(propan-2-yloxy)isoquinoline-6-carboxamide formate] is 6.51.
The figure for `CC(C)Oc1cc2c(OC3CCNCC3)ccnc2cc1C(N)=O` [Example 25, 4-(piperidin-4-yloxy)-6-(propan-2-yloxy)quinoline-7-carboxamide] is 6.74.
As for `CC(C)Oc1cc2c(O[C@H]3CCCNC3)nccc2cc1C(N)=O` [Example 75, 1-[(3S)-piperidin-3-yloxy]-7-(propan-2-yloxy)isoquinoline-6-carboxamide], the figure is 5.51; as for `CC(C)Oc1cc2c(O[C@@H]3CC[C@H](C)NC3)ccnc2cc1C(N)=O` [Example 59, 4-{[(3R,6S)-6-methylpiperidin-3-yl]oxy}-6-(propan-2-yloxy)quinoline-7-carboxamide], 6.04; as for `Cc1cc(O[C@@H]2CCCNC2)c2cc(OC(C)C)c(C(N)=O)cc2n1` [Example 68, (R)-6-isopropoxy-2-methyl-4-(piperidin-3-yloxy)quinoline-7-carboxamide trifluoroacetate], 5.89.
In the case of `CC(C)Oc1cc2c(O[C@H]3CCN(C(=O)CC#N)C3)ccnc2cc1C(N)=O` [Example 39, 4-{[(3S)-1-(cyanoacetyl)pyrrolidin-3-yl]oxy}-6-(propan-2-yloxy)quinoline-7-carboxamide], the pIC50 is 6.81.
As for `CC(C)Oc1cc2c(O[C@@H]3CCCN(C(=O)CN)C3)ccnc2cc1C(N)=O` [Example 6, 4-{[(3R)-1-glycylpiperidin-3-yl]oxy}-6-(propan-2-yloxy)quinoline-7-carboxamide formate], the figure is 6.46; as for `CC(C)Oc1cc2c(OC3CCNC3=O)ccnc2cc1C(N)=O` (stereo not shown) [Example 27, 4-[(2-oxopyrrolidin-3-yl)oxy]-6-(propan-2-yloxy)quinoline-7-carboxamide], 6.19; as for `CC(C)Oc1cc2c(O[C@H]3CN(C(=O)CC#N)CC[C@@H]3C)ccnc2cc1C(N)=O` [Example 52, 4-{[(3R,4S)-1-(cyanoacetyl)-4-methylpiperidin-3-yl]oxy}-6-(propan-2-yloxy)quinoline-7-carboxamide], 7.19.
In turn, `CC(C)Oc1cc2c(O[C@@H]3CCCN(C(=O)CC#N)C3)ncc(C#N)c2cc1C(N)=O` [Example 38, 4-cyano-1-{[(3R)-1-(cyanoacetyl)piperidin-3-yl]oxy}-7-(propan-2-yloxy)isoquinoline-6-carboxamide] gave a pIC50 of 6.79.
Take `CC(C)Oc1cc2c(O[C@@H]3CCCNC3)ncc(Cl)c2cc1C(N)=O` [Example 55, 4-chloro-1-[(3R)-piperidin-3-yloxy]-7-(propan-2-yloxy)isoquinoline-6-carboxamide hydrochloride]: the pIC50 was 6.66.
The figure for `CC(C)Oc1cc2c(OC3CCCNC3)cccc2cc1C(N)=O` (stereo not shown) [Example 57, 3-isopropoxy-5-(piperidin-3-yloxy)-2-naphthamide hydrochloride] is 7.40; for `CC(C)Oc1cc2c(O[C@@H]3CCCNC3)nccc2cc1C(N)=O` [Example 53, 1-[(3R)-piperidin-3-yloxy]-7-(propan-2-yloxy)isoquinoline-6-carboxamide hydrochloride] it is 7.37.
As to `Cc1cc(O[C@@H]2CCCN(C(=O)CC#N)C2)c2cc(OC(C)C)c(C(N)=O)cc2n1` [Example 29, (R)-4-((1-(2-cyanoacetyl)piperidin-3-yl)oxy)-6-isopropoxy-2-methylquinoline-7-carboxamide], the pIC50 is 6.83.
The figure for `NC(=O)c1cc2nccc(O[C@@H]3CCCNC3)c2cc1OC(F)F` [Example 67, (R)-6-(difluoromethoxy)-4-(piperidin-3-yloxy)quinoline-7-carboxamide] is 5.86; for `N#CCC(=O)N1CCC[C@@H](Oc2ccnc3cc(C(N)=O)c(OC4CCC4)cc23)C1` [Example 33, (R)-4-((1-(2-cyanoacetyl)piperidin-3-yl)oxy)-6-cyclobutoxyquinoline-7-carboxamide] it is 6.57; for `CC[C@H](C)Oc1cc2c(O[C@@H]3CCCNC3)ccnc2cc1C(N)=O` [Example 72, 6-[(2S)-butan-2-yloxy]-4-[(3R)-piperidin-3-yloxy]quinoline-7-carboxamide] it is 5.96.
As for `CC(C)Oc1cc2c(O[C@H]3CNCC[C@@H]3C)ccnc2cc1C(N)=O` [Example 74, 4-{[(3R,4S)-4-methylpiperidin-3-yl]oxy}-6-(propan-2-yloxy)quinoline-7-carboxamide], the figure is 5.55.
As for `CC(C)Oc1cc2c(O[C@@H]3CCCN(C(=O)[C@H](C)N)C3)ccnc2cc1C(N)=O` [Example 7, 4-{[(3R)-1-(L-alanyl)piperidin-3-yl]oxy}-6-(propan-2-yloxy)quinoline-7-carboxamide formate], the figure is 6.84; as for `NC(=O)c1cc2nccc(O[C@@H]3CCCNC3)c2cc1OC1CCC1` [Example 23, 6-(cyclobutyloxy)-4-[(3R)-piperidin-3-yloxy]quinoline-7-carboxamide], 6.82; as for `COc1cc2c(O[C@@H]3CCCN(C(=O)CC#N)C3)ccnc2cc1C(N)=O` [Example 30, (R)-4-((1-(2-cyanoacetyl)piperidin-3-yl)oxy)-6-methoxyquinoline-7-carboxamide], 7.55.
Molecule `CC(C)Oc1cc2c(O[C@@H]3C[C@@H](C)N(C(=O)CC#N)C3)ccnc2cc1C(N)=O` [Example 16, 4-{[(3R,5R)-1-(cyanoacetyl)-5-methylpyrrolidin-3-yl]oxy}-6-(propan-2-yloxy)quinoline-7-carboxamide formate] gave a pIC50 of 6.96.
In turn, `COCC(=O)N1CCC[C@@H](Oc2ccnc3cc(C(N)=O)c(OC(C)C)cc23)C1` [Example 8, 4-{[(3R)-1-(methoxyacetyl)piperidin-3-yl]oxy}-6-(propan-2-yloxy)quinoline-7-carboxamide formate] showed a pIC50 of 6.77.
The figure for `CC(C)Oc1cc2c(O[C@@H]3CCCN(C(=O)[C@H](C)O)C3)ccnc2cc1C(N)=O` [Example 13, 4-({(3R)-1-[(2S)-2-hydroxypropanoyljpiperidin-3-yl}oxy)-6-(propan-2-yloxy)quinoline-7-carboxamide formate] is 6.12; for `CC(C)Oc1cc2c(O[C@@H]3CCCN(C(=O)C(F)F)C3)ccnc2cc1C(N)=O` [Example 5, 4-{[(3R)-1-(difluoroacetyl)piperidin-3-yl]oxy}-6-(propan-2-yloxy)quinoline-7-carboxamide formate] it is 7.46; for `CC(C)Oc1cc2c(O[C@H]3CNCC[C@@H]3C)nccc2cc1C(N)=O` [Example 70, 1-{[(3R,4S)-4-methylpiperidin-3-yl]oxy}-7-(propan-2-yloxy)isoquinoline-6-carboxamide] it is 5.90.
